Test results published in patent US20250099407A1, “2-AMINO BENZOPHENONE DERIVATIVES FOR TARGETED FERROPTOSIS INDUCTION IN CANCER THERAPY” (INDIAN INSTITUTE OF TECHNOLOGY KANPUR, priority 2023, published 2025).

Legend:
U2OS = assay: Cell viability, CellTiter-Glo assay, U2OS; format: cell-based; settings: Homo sapiens
Experimental: (§1) The viability of screened cancer cells was recorded using a luminescence-based CellTiter-Glo® assay for the ATP quantification. The screening concentration of the molecule ranged from 100/10 μM to 45/4.5 nM with an 8-point-3-fold dilution series in DMEM media (>0.1% DMSO as control). Each experiment was conducted in more than two biological replicates with three technical replicates. The error bar is a representation of standard deviation among the technical replicates.
as §1, with “IITK3002” for “the molecule”, “10” for “100/10”, “4.5” for “45/4.5”
(§2) a. […] In parallel, we have also synthesized the bromoacetamide (IITK3002) version of the lead molecules which is slightly more reactive with thiol nucleophiles when compared to chlorooacetamide warheads as depicted in FIG. 13. […] In addition, we also evaluated the molecules' antiproliferative potency against a panel of twelve different cancer phenotypes. The set of cancer cell lines included liver, breast, colon, myeloma, bone, blood, skin, brain and prostate lineages (FIG. 2, 3, Table 1).

PC3 = assay: Cell viability, CellTiter-Glo assay, PC3; format: cell-based; settings: Homo sapiens, PC-3, PC3, cell viability
Experimental: as §1
as §1, with “IITK3002” for “the molecule”, “10” for “100/10”, “4.5” for “45/4.5”
as §2

22Rv1 = assay: Cell viability, CellTiter-Glo assay, 22Rv1; format: cell-based; settings: Homo sapiens, 22Rv1, 22Rv1, cell viability
Experimental: as §1
as §1, with “IITK3002” for “the molecule”, “10” for “100/10”, “4.5” for “45/4.5”
as §2

A549 = assay: Cell viability, A549; format: cell-based; settings: Homo sapiens
Huh-7 cells = assay: Cell viability, luminescence-based CellTiter-Glo assay, Huh-7 cells; settings: Homo sapiens, Huh-7, Huh-7 cells, cell viability; read-out: EC50 Huh-7
Experimental: The viability of Huh-7 cells was recorded using a luminescence-based CellTiter-Glo® assay. The screening concentration of the molecules were 10 μM with or without Fer-1 (10 μM) in DMEM media (>0.1% DMSO as control).
Ferroptosis is a unique form of cell death mechanism mediated by the accumulation of lipid peroxides in cells which is distinct from healthy cells' apoptosis, a programmed […] route. We aimed to exploit the induction of ferroptosis in cancer cells using covalent small molecules as a potential strategy for cancer therapeutic development. […] We used various amide bond formation chemistry to construct the library members and these molecules are well characterized by various spectroscopic and mass spectrometry techniques. Once confirmed, these thiol reactive library members were screened in a cancer cell viability assay in combination with ferrostatin-1 (Fer-1), a ferroptosis inhibitor as depicted in FIG. 11. […] We have screened a total of ˜50 electrophilic small molecules to prevent the proliferation of hepatocellular carcinoma (Huh-7 cells) in combination with and without Fer-1. From our initial screening, we identified haloacetamides of 2-aminoalkylbenzophenone as potential ferroptosis inducers as depicted in FIG. 11.
as §1
The viability of screened cancer cells was recorded using a luminescence-based CellTiter-Glo® assay for the ATP quantification. The screening concentration of IITK3002 ranged from 10 μM to 4.5 nM with an 8-point-3-fold dilution series in DMEM media (>0.1% DMSO as control). Each experiment was conducted in more than two biological replicates with three technical replicates. The error bar is a representation of standard deviation among the technical replicates. […]
a. Electrophilic Warhead Optimization: Once we identified 2-benzoylphenyl-a-haloacetamide as the lead scaffold, we have investigated the structure-activity-relationship analysis to precisely capture the effect of various chemical handles of the scaffold and use the knowledge to improve the overall potency and selectivity of this molecule to prevent cancer cell proliferation. First, we changed the haloacetamide electrophilic unit with various other electrophiles with a characteristic high, moderate, and weak reactivity with thiols when compared to chloroacetamide. Therefore, we opted vinylsulfonamide (highly reactivity), acrylamide (moderate reactivity), and phenoxyacetamides (weak reactivity warheads) for incorporation in the place of haloacetamide warhead of the top hit scaffold. Once synthesized, these molecules were evaluated to assess their antiproliferative potency against Huh-7 cells (Table 2). As expected, the introduction of weakly reactive electrophilic warheads, phenoxyactamides, completely lost the activity against Huh-7 cells. […] Perhaps, the secondary interactions of the electrophilic warhead with the target proteins might play additional roles. Therefore, we shifted our focus to optimize the rest of the core scaffold for further SAR analysis. b. Role of N-Substitutions: Next, we synthesized the NH-derivative of haloacetamides to capture the importance of N-alkylation on the activity of our hit molecule. […] Perhaps the hydrogen bonding induced planarity around the warhead influences the molecules' weakened potency. Conversely, the additional flexibility in the lead molecule (tertiary amide) might contribute to the strong antiproliferative activity of the hit molecule. […]

Row | Compound | EC50 (U2OS) [µM] | EC50 (PC3) [µM] | EC50 (22Rv1) [µM] | EC50 (A549) [µM] | EC50 (Huh-7 cells) [µM]
1 | C=CCN(C(=O)COc1ccc(C(C)(C)C)cc1)c1ccccc1C(=O)c1ccccc1 [IITK3023, N-allyl-N-(2-benzoylphenyl)-2-(4-(tert-butyl)phenoxy)acetamide] | > 100 | > 20 | > 20 | 20 | –
2 | C#CCN(C(=O)COc1ccc(F)cc1)c1ccccc1C(=O)c1ccccc1 [IITK3030, N-(2-benzoylphenyl)-2-(4-fluorophenoxy)-N-(prop-2-yn-1-yl)acetamide] | > 20 | > 20 | > 20 | > 20 | > 100
3 | CN(C(=O)COc1ccc(Br)cc1)c1ccccc1C(=O)c1ccccc1 [IITK3009, N-(2-benzoylphenyl)-2-(4-bromophenoxy)-N-methylacetamide] | > 20 | > 20 | > 20 | > 20 | > 20
4 | C=CS(=O)(=O)N(C)c1ccccc1C(=O)c1ccccc1 [IITK3011, N-(2-benzoylphenyl)-N-methylethenesulfonamide] | > 20 | > 20 | > 20 | > 20 | –
5 | O=C(c1ccccc1)c1ccccc1N(Cc1ccccc1)C(=O)COc1ccc(F)cc1 [IITK3037, N-(2-benzoylphenyl)-N-benzyl-2-(4-fluorophenoxy)acetamide] | > 20 | > 20 | > 20 | > 20 | > 20
6 | C#CCN(C(=O)COc1ccc(Br)cc1)c1ccccc1C(=O)c1ccccc1 [IITK3033, N-(2-benzoylphenyl)-2-(4-bromophenoxy)-N-(prop-2-yn-1-yl)acetamide] | > 20 | > 20 | > 20 | > 20 | > 20
7 | CC(C)(C)c1ccc(OCC(=O)N(Cc2ccccc2)c2ccccc2C(=O)c2ccccc2)cc1 [IITK3038, N-(2-benzoylphenyl)-N-benzyl-2-(4-(tert-butyl)phenoxy)acetamide] | > 20 | > 20 | > 20 | > 20 | > 100
8 | CN(C(=O)COc1ccc(F)cc1)c1ccccc1C(=O)c1ccccc1 [IITK3006, N-(2-benzoylphenyl)-2-(4-fluorophenoxy)-N-methylacetamide] | > 20 | > 20 | > 20 | > 20 | > 20
9 | CN(C(=O)COc1ccc(C(C)(C)C)cc1)c1ccccc1C(=O)c1ccccc1 [IITK3008, N-(2-benzoylphenyl)-2-(4-(tert-butyl)phenoxy)-N-methylacetamide] | – | 12.8 | – | – | > 20
10 | O=C(CCl)Nc1ccccc1C(=O)c1ccccc1 [IITK3012, N-(2-benzoylphenyl)-2-chloroacetamide] | > 20 | > 20 | > 20 | > 20 | –
11 | C=CC(=O)N(C)c1ccccc1C(=O)c1ccccc1 [IITK3010, N-(2-benzoylphenyl)-N-methylacrylamide] | > 20 | > 20 | > 20 | > 20 | –
12 | O=C(CBr)Nc1ccc([N+](=O)[O-])cc1C(=O)c1ccccc1 [IITK3051, N-(2-benzoyl-4-nitrophenyl)-2-bromoacetamide] | > 20 | > 20 | > 20 | > 20 | –
13 | O=C(c1ccccc1)c1ccccc1N(Cc1ccccc1)C(=O)CCl [IITK3034, N-(2-benzoylphenyl)-N-benzyl-2-chloroacetamide] | – | – | 3.85 | – | –
14 | CC(C)N(C(=O)CCl)c1ccccc1C(=O)c1ccccc1 [IITK3028, N-(2-benzoylphenyl)-2-chloro-N-isopropylacetamide] | > 20 | > 20 | > 20 | > 20 | 19.6
15 | O=C(c1ccccc1)c1ccccc1N(Cc1ccccc1)C(=O)CBr [IITK3035, N-(2-benzoylphenyl)-N-benzyl-2-bromoacetamide] | 0.19 | 0.53 | 0.77 | 0.24 | –
16 | C#CCN(C(=O)COc1ccccc1)c1ccccc1C(=O)c1ccccc1 [IITK3029, N-(2-benzoylphenyl)-2-phenoxy-N-(prop-2-yn-1-yl)acetamide] | > 20 | > 20 | > 20 | > 20 | > 20
17 | O=C(c1ccccc1)c1ccccc1N(Cc1ccccc1)C(=O)COc1ccccc1 [IITK3036, N-(2-benzoylphenyl)-N-benzyl-2-phenoxyacetamide] | > 20 | > 20 | > 20 | > 20 | > 20
18 | C=CCN(C(=O)COc1ccccc1)c1ccccc1C(=O)c1ccccc1 [IITK3020, N-allyl-N-(2-benzoylphenyl)-2-phenoxyacetamide] | > 20 | > 20 | > 20 | > 20 | –
